Results reported in patent publication US9814706B2, “Hydrobromide salt of pridopidine” (Teva Pharmaceuticals International GmbH, priority 2011, dated 2017).
Where a name gives a salt, the structure may show the parent alone. Read-outs that look alike come from different tables or passages of the source.

Conditions: for hygroscopicity / deliquescence by DVS profile (in words): hydrobromide salt
Procedure: DVS analysis was performed on two of the HCl salts of pridopidine (HCl salt of pridopidine batches A and B). A full two cycle sorption and desorption profile was obtained for a third HCl salt of pridopidine (hydrochloride salt of pridopidine batch C).
An additional run was performed in the mid-eighties relative humidity range in order to indentify the transition point in more detail. (See FIG. 9). […] Dynamic vapour sorption (DVS) measurements were conducted using a Q5000 SA from TA instruments.
Prior to the first sorption cycle the sample was equilibrated at 20% RH and the initial weight recorded. Samples were analyzed in an aluminium pan. Humidity was brought down to 0% RH and the sample dried until the weight had stabilized within a given limit. The temperature was held constant at 25° C. Maximum step time was 720 min. Gas flow was 200 cm^3/min.

Compound | weight gain at 90% relative humidity (DVS) (90% RH step, first sorption cycle) | state of specimen at the end of the DVS cycle (additional run with smaller steps in the mid-eighties RH range (80-90-80%)) | weight gained between 0 and 95% RH (DVS), lost again during desorption (0-95% RH, two sorption/desorption cycles, 25° C.) | hygroscopicity / deliquescence by DVS profile (in words) (0-95% RH) | hygroscopicity / deliquescence by DVS profile (in words) (0-95% RH, listed as NS30016-HBr salt) | weight gained at the 95% relative humidity (RH) level (DVS) (95% RH, 25° C.)
CCCN1CCC(c2cccc(S(C)(=O)=O)c2)CC1 [hydrochloride salt of pridopidine, hydrochloride salt of 4-(3-methanesulfonyl-phenyl)-1-propyl-piperidine, reference compound] | approximately 80% | completely dissolved | – | – | – | –
Br.CCCN1CCC(c2cccc(S(C)(=O)=O)c2)CC1 [Pridopidine hydrobromide, 4-(3-methanesulfonyl-phenyl)-1-propyl-piperidine hydrobromide salt] | – | – | approximately 0.15% | non-hygroscopic and non-deliquescent | non-hygroscopic | less than 1%
